# pIC50, pKd: −log10 of the molar value. Active and inactive are the calls of the source. No cut-off for these calls is given here.
# How the values were obtained:
# [1] = target: T1, NACHT, LRR and PYD domains-containing protein 3 (Homo sapiens, UniProt Q96P20); assay: (§1) Inhibition of NLRP3 inflammasome activation in PMA-differentiated human THP-1 cells assessed as reduction in LPS/MSU-induced IL-1beta secretion preincubated with LPS for 3 hrs followed by compound addition for 30 mins prior to MSU addition and measured after 4 hrs by ELISA method; assay type: cell-based
# T1 sequence (Q96P20 whole entry, the tested form may be a part): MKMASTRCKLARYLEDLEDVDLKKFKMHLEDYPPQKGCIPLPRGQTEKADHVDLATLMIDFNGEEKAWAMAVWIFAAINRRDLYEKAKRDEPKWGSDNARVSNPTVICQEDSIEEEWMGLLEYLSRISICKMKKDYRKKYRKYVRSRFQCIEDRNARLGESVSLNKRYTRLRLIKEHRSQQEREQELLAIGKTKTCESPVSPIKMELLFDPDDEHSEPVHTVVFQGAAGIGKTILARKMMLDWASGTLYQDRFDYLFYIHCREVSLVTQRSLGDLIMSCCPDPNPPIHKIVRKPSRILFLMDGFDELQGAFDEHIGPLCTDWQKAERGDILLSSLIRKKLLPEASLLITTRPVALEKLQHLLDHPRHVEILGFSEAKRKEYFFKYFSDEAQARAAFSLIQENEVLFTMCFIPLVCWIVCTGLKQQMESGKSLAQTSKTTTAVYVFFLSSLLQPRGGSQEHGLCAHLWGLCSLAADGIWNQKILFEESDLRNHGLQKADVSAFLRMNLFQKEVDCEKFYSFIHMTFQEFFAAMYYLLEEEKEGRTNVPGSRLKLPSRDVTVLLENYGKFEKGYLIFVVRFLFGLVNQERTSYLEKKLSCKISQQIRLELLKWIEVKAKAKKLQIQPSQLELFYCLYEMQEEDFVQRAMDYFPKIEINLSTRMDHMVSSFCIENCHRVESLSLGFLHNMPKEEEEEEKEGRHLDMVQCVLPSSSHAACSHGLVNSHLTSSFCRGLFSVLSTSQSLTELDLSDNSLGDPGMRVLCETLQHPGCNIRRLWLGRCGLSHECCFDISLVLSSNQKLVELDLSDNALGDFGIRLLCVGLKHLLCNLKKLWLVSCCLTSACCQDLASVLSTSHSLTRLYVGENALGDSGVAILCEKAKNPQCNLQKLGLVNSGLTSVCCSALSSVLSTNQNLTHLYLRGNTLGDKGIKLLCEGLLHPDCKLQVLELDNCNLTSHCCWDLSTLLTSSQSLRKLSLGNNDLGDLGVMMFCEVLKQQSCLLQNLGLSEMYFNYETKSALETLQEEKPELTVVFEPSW
# [2] = target: NACHT, LRR and PYD domains-containing protein 3 (Mus musculus) (UniProt Q8R4B8); assay: Inhibition of NLRP3 inflammasome activation in mouse BMDM cells assessed as effect on LPS/Nigericin induced pro-IL-1beta expression level at 10 to 40 nM by Western blot analysis; assay type: cell-based; details: dose 10-40 nM
# Sequence of NACHT, LRR and PYD domains-containing protein 3 (Mus musculus) (Q8R4B8 whole entry, the tested form may be a part): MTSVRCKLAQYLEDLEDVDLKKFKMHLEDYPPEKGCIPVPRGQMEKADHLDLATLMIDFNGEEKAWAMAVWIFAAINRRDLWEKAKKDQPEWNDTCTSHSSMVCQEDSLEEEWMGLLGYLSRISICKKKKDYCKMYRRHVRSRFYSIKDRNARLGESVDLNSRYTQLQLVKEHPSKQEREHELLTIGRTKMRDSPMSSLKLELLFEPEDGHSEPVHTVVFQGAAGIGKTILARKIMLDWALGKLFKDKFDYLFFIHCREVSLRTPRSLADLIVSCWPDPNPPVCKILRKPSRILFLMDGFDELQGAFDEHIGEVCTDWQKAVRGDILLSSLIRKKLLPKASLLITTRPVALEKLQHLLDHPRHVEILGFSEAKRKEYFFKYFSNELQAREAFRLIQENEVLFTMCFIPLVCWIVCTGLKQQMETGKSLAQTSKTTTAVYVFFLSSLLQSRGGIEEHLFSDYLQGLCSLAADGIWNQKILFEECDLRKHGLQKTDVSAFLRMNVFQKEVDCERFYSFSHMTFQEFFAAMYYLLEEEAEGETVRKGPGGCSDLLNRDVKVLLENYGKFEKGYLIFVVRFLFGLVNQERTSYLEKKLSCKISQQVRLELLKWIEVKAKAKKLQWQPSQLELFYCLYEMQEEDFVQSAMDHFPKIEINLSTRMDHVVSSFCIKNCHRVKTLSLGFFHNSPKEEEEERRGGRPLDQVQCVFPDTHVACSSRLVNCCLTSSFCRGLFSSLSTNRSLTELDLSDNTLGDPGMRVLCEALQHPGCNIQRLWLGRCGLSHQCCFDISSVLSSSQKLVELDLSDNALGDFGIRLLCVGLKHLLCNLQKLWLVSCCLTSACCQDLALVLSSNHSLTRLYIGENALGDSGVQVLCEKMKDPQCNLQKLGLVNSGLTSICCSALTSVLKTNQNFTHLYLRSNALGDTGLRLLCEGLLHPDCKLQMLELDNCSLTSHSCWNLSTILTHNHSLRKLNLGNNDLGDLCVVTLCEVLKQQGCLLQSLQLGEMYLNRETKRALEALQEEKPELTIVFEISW
# [3] = target: T1, NACHT, LRR and PYD domains-containing protein 3; assay: as §1, with “LPS/ATP-induced” for “LPS/MSU-induced”, “secretion at 3 nM” for “secretion”, “ATP” for “MSU”, “30 mins” for “4 hrs”, “method relative to control” for “method”; assay type: cell-based; details: time 1.0 hrs
# [4] = target: T1, NACHT, LRR and PYD domains-containing protein 3; assay: as §1, with “LPS/Nigericin-induced” for “LPS/MSU-induced”, “secretion at 3 nM” for “secretion”, “nigericin” for “MSU”, “30 mins” for “4 hrs”, “method relative to control” for “method”; assay type: cell-based; details: time 1.0 hrs
# [5] = Hepatotoxicity in mouse assessed as effect on AST level at 10 mg/kg measured after 30 days; assay type: toxicity, organism-based; details: in vivo, 720 h, time 30 day
# [6] = target: T1, NACHT, LRR and PYD domains-containing protein 3; assay: as §1, with “LPS/Nigericin-induced” for “LPS/MSU-induced”, “secretion at 30 nM” for “secretion”, “nigericin” for “MSU”, “30 mins” for “4 hrs”; assay type: cell-based; details: time 1.0 hrs
# [7] = target: NACHT, LRR and PYD domains-containing protein 3 (Mus musculus) (UniProt Q8R4B8); assay: Inhibition of NLRP3 inflammasome activation in mouse BMDM cells assessed as effect on LPS/Nigericin induced NEK7 expression level at 10 to 40 nM by Western blot analysis; assay type: cell-based; details: dose 10-40 nM
# [8] = target: T1, NACHT, LRR and PYD domains-containing protein 3; assay: Inhibition of NLRP3 inflammasome activation in LPS/Nigericin induced PMA-differentiated human THP-1 cells assessed as effect on mitochondrial membrane potential by Mitotracker staining based immunofluorescence analysis; assay type: cell-based
# [9] = target: NACHT, LRR and PYD domains-containing protein 3 (Mus musculus) (UniProt Q8R4B8); assay: Inhibition of NLRP3 inflammasome activation in mouse BMDM cells assessed as decrease in LPS/Nigericin induced caspase-1 level by Western blot analysis; assay type: cell-based; details: dose 10-40 nM
# [10] = target: NACHT, LRR and PYD domains-containing protein 3 (Mus musculus) (UniProt Q8R4B8); assay: Inhibition of NLRP3 inflammasome activation in mouse BMDM cells assessed as effect on LPS/Nigericin induced procaspase-1 expression level at 10 to 40 nM by Western blot analysis; assay type: cell-based; details: dose 10-40 nM
# [11] = species on record: Mus musculus; assay: Neuroprotective activity against scopolamine-induced cognitive impairment in AD mouse model assessed as reduction in escape latency by Morris water maze test; assay type: functional, organism-based; details: dose 5-30 mg/kg
# [12] = tested on: Mus musculus; assay: Anti-aging activity in […] AD mouse model assessed as upregulation of IGF-1 expression at 10 mg/kg administered via gavage daily for 30 days; assay type: functional, organism-based; details: time 30.0 day
# [13] = target: NACHT, LRR and PYD domains-containing protein 3 (Mus musculus) (UniProt Q8R4B8); assay: Inhibition of NLRP3 inflammasome activation in mouse BMDM cells assessed as effect on LPS/Nigericin induced ASC expression level at 10 to 40 nM by Western blot analysis; assay type: cell-based; details: dose 10-40 nM
# [14] = target: NACHT, LRR and PYD domains-containing protein 3 (Mus musculus) (UniProt Q8R4B8); assay: Inhibition of NLRP3 inflammasome activation in mouse BMDM cells assessed as effect on LPS/Nigericin induced NLRP3 expression level at 10 to 40 nM by Western blot analysis; assay type: cell-based; details: dose 10-40 nM
# [15] = target: T1, NACHT, LRR and PYD domains-containing protein 3; assay: Inhibition of NLRP3 inflammasome activation in PMA-differentiated human THP-1 cells assessed as reduction in LPS/ATP-induced IL-1beta secretion at 30 nM preincubated with LPS for 3 hrs followed by compound addition for 30 mins prior to ATP addition and measured after 30 mins by ELISA method; assay type: cell-based; details: time 1.0 hrs
# [16] = Hepatotoxicity in mouse assessed as effect on ALT level at 10 mg/kg measured after 30 days; assay type: toxicity, organism-based; details: in vivo, 720 h, time 30 day
# [17] = tested on: HEK293; assay: Cytotoxicity against HEK293 cells assessed as cell viability at 0.39 to 100 uM incubated for 24 hrs by CCK-8 method; assay type: toxicity, cell-based; details: human, hek293, 24 h, dose 0.39-100 µM
# [18] = target: T1, NACHT, LRR and PYD domains-containing protein 3; assay: Binding affinity to NLRP3 (unknown origin) assessed as dissociation constant by Surface Plasmon Resonance analysis
# [19] = tested on: Mus musculus; assay: Anti-aging activity in […] AD mouse model assessed as reduction in beta-galactosidase level at 10 mg/kg administered via gavage daily for 30 days; assay type: functional, organism-based; details: time 30.0 day
# [20] = target: T1, NACHT, LRR and PYD domains-containing protein 3; assay: Inhibition of NLRP3 inflammasome activation in LPS/Nigericin induced PMA-differentiated human THP-1 cells assessed as effect on ROS production by measuring red fluorescence by MitoSOX staining based immunofluorescence analysis; assay type: cell-based
# [21] = tested on: Mus musculus; assay: Locomotor activity in mouse assessed as effect on total distance traveled at 30 mg/kg measured for 1.5 hrs by Open field test; assay type: functional, organism-based
# [22] = target: NACHT, LRR and PYD domains-containing protein 3 (Mus musculus) (UniProt Q8R4B8); assay: Inhibition of NLRP3 inflammasome activation in mouse BMDM cells assessed as decrease in LPS/Nigericin induced IL-1 beta level by Western blot analysis; assay type: cell-based; details: dose 10-40 nM
# [23] = tested on: Mus musculus; assay: Neuroprotective activity against scopolamine-induced cognitive impairment in AD mouse model assessed as reduction in escape latency at 10 mg/kg administered daily by Morris water maze test; assay type: functional, organism-based
smiles,measurement,setting,value
Cc1cc(F)ccc1-c1ccc2c(c1NC(=O)NS(=O)(=O)c1cc(C(C)(C)O)co1)CCC2,pIC50,[1],6.25
CC(C)(O)c1coc(S(=O)(=O)NC(=O)Nc2c(-c3ccc([N+](=O)[O-])cc3)ccc3c2CCC3)c1,pIC50,[1],8.22
CCOc1ccc2cc(-c3ccc4c(c3NC(=O)NS(=O)(=O)c3cc(C(C)(C)O)co3)CCC4)ccc2c1,pIC50,[1],7.14
O=C(Nc1c(-c2ccc([N+](=O)[O-])cc2)ccc2c1CCC2)NS(=O)(=O)c1cccc(Br)n1,pIC50,[1],6.67
CC(C)(O)c1coc(S(=O)(=O)NC(=O)Nc2c3c(cc(Br)c2OC2CCCC2)CCC3)c1,pIC50,[1],< 6.00
CN(C)Cc1ccc(S(=O)(=O)NC(=O)Nc2c(-c3ccc([N+](=O)[O-])cc3)ccc3c2CCC3)cc1,pIC50,[1],< 6.00
CC(C)c1cc(I)cc(C(C)C)c1NC(=O)NS(=O)(=O)c1cc(C(C)(C)O)co1,pIC50,[1],7.51
CC(C)(O)c1csc(S(=O)(=O)NC(=O)Nc2c(-c3ccc([N+](=O)[O-])cc3)ccc3c2CCC3)c1,inhibition,[2],inactive
same,inhibition,[3],> 50%
same,inhibition,[4],> 50%
same,pIC50,[1],7.92
same,Activity,[5],Non-toxic
same,inhibition,[6],Active; Compound Nearly Abolished Il-1 Beta Secretion
same,inhibition,[7],inactive
same,inhibition,[8],inactive
same,inhibition,[9],Dose-dependent-effect
same,inhibition,[10],inactive
same,Activity,[11],Dose-dependent-effect
same,Activity,[12],Active
same,inhibition,[13],inactive
same,inhibition,[14],inactive
same,inhibition,[15],Active; Compound Nearly Abolished Il-1 Beta Secretion
same,Activity,[16],Non-toxic
same,Activity,[17],Non-toxic
same,pKd,[18],7.71
same,Activity,[19],Active
same,inhibition,[20],inactive
same,Activity,[21],Active
same,inhibition,[22],Dose-dependent-effect
O=C(Nc1c(-c2ccc([N+](=O)[O-])cc2)ccc2c1CCC2)NS(=O)(=O)CCO,pIC50,[1],< 6.00
O=C(Nc1c(-c2ccc([N+](=O)[O-])cc2)ccc2c1CCC2)NS(=O)(=O)c1cccnc1,pIC50,[1],< 6.00
CC(C)(O)c1coc(S(=O)(=O)NC(=O)Nc2c3c(cc4c2CCC4)CCC3)c1,Activity,[23],Active
Cc1ccc(S(=O)(=O)NC(=O)Nc2c(-c3ccc([N+](=O)[O-])cc3)ccc3c2CCC3)cc1,pIC50,[1],< 6.00
Cc1nn(C)cc1S(=O)(=O)NC(=O)Nc1c(-c2ccc([N+](=O)[O-])cc2)ccc2c1CCC2,pIC50,[1],< 6.00
O=C(Nc1c(-c2ccc([N+](=O)[O-])cc2)ccc2c1CCC2)NS(=O)(=O)CC1CCCCC1,pIC50,[1],< 6.00
COC(=O)c1csc(S(=O)(=O)NC(=O)Nc2c(-c3ccc([N+](=O)[O-])cc3)ccc3c2CCC3)c1,pIC50,[1],6.48
COc1cncc(-c2ccc3c(c2NC(=O)NS(=O)(=O)c2cc(C(C)(C)O)co2)CCC3)c1,pIC50,[1],7.49
CN[C@H]1COc2c(S(=O)(=O)NC(=O)Nc3c(-c4ccc([N+](=O)[O-])cc4)ccc4c3CCC4)cnn2C1,pIC50,[1],6.59
CC(C)(O)CS(=O)(=O)NC(=O)Nc1c(-c2ccc([N+](=O)[O-])cc2)ccc2c1CCC2,pIC50,[1],< 6.00
Cn1ccc(S(=O)(=O)NC(=O)Nc2c(-c3ccc([N+](=O)[O-])cc3)ccc3c2CCC3)n1,pIC50,[1],< 6.00
O=C(Nc1c(-c2ccc([N+](=O)[O-])cc2)ccc2c1CCC2)NS(=O)(=O)N1CCOCC1,pIC50,[1],< 6.00
Cc1ccsc1S(=O)(=O)NC(=O)Nc1c(-c2ccc([N+](=O)[O-])cc2)ccc2c1CCC2,pIC50,[1],< 6.00
CC(C)c1cccc(-c2ccc3c(c2NC(=O)NS(=O)(=O)c2cc(C(C)(C)O)co2)CCC3)c1,pIC50,[1],< 6.00
O=C(Nc1c(-c2ccc([N+](=O)[O-])cc2)ccc2c1CCC2)NS(=O)(=O)c1cnn2c1OCCC2,pIC50,[1],6.17
CC(=O)c1ccc(S(=O)(=O)NC(=O)Nc2c(-c3ccc([N+](=O)[O-])cc3)ccc3c2CCC3)cc1,pIC50,[1],6.37
COc1cccc(OC)c1-c1ccc2c(c1NC(=O)NS(=O)(=O)c1cc(C(C)(C)O)co1)CCC2,pIC50,[1],< 6.00
CC(C)(C)c1cc(-c2ccc3c(c2NC(=O)NS(=O)(=O)c2cc(C(C)(C)O)co2)CCC3)cc(C(C)(C)C)c1,pIC50,[1],< 6.00
O=C(Nc1c(-c2ccc([N+](=O)[O-])cc2)ccc2c1CCC2)NS(=O)(=O)c1cccs1,pIC50,[1],7.27
O=C(Nc1c(-c2ccc([N+](=O)[O-])cc2)ccc2c1CCC2)NS(=O)(=O)N1CCCC1,pIC50,[1],< 6.00
CCCCOc1cccc(-c2ccc3c(c2NC(=O)NS(=O)(=O)c2cc(C(C)(C)O)co2)CCC3)c1,pIC50,[1],6.54
CN(C)c1cccc(-c2ccc3c(c2NC(=O)NS(=O)(=O)c2cc(C(C)(C)O)co2)CCC3)c1,pIC50,[1],< 6.00
COCCOc1ccc(-c2ccc3c(c2NC(=O)NS(=O)(=O)c2cc(C(C)(C)O)co2)CCC3)cc1,pIC50,[1],6.61
CCCCNC(=O)c1cccc(-c2ccc3c(c2NC(=O)NS(=O)(=O)c2cc(C(C)(C)O)co2)CCC3)c1,pIC50,[1],7.08
O=C(Nc1c(-c2ccc([N+](=O)[O-])cc2)ccc2c1CCC2)NS(=O)(=O)c1ccccc1,pIC50,[1],6.45
CC(C)(O)c1coc(S(=O)(=O)NC(=O)Nc2c(-c3ccnc(F)c3)ccc3c2CCC3)c1,pIC50,[1],7.57
CCCCNS(=O)(=O)c1cccc(-c2ccc3c(c2NC(=O)NS(=O)(=O)c2cc(C(C)(C)O)co2)CCC3)c1,pIC50,[1],< 6.00
O=C(Nc1c(-c2ccc([N+](=O)[O-])cc2)ccc2c1CCC2)NS(=O)(=O)c1ccc2ccccc2c1,pIC50,[1],< 6.00
O=C(Nc1c(-c2ccc([N+](=O)[O-])cc2)ccc2c1CCC2)NS(=O)(=O)c1cc(Br)cs1,pIC50,[1],< 6.00
Cc1cccc(-c2ccc3c(c2NC(=O)NS(=O)(=O)c2cc(C(C)(C)O)co2)CCC3)c1,pIC50,[1],7.12
Nc1cccc(S(=O)(=O)NC(=O)Nc2c(-c3ccc([N+](=O)[O-])cc3)ccc3c2CCC3)c1,pIC50,[1],6.39
CC(C)(O)c1coc(S(=O)(=O)NC(=O)Nc2c(-c3cccc(OC(F)(F)F)c3)ccc3c2CCC3)c1,pIC50,[1],6.45
CCCCc1ccc(-c2ccc3c(c2NC(=O)NS(=O)(=O)c2cc(C(C)(C)O)co2)CCC3)cc1,pIC50,[1],< 6.00

# Source: ChEMBL document CHEMBL6092214, “Design, synthesis, and pharmacological characterization of sulfonylurea-based NLRP3 inhibitors: Towards an effective therapeutic strategy for Alzheimer's disease” (Eur J Med Chem, 2024)
